In ChEMBL document CHEMBL2086254, “Synthesis and identification of novel indolo[2,3-a]pyrimido[5,4-c]carbazoles as a new class of anti-cancer agents” (Eur J Med Chem, 2012):

Key:
Assay type in all cases: functional
IGROV-1 = assay: Cytotoxicity against human IGROV1 cells after 48 hrs by SRB assay; conditions: IGROV-1, 48 h
HCC 2998 = assay: Cytotoxicity against human HCC2998 cells after 48 hrs by SRB assay; conditions: HCC 2998, 48 h
NCI-H226 = assay: Cytotoxicity against human NCI-H226 cells after 48 hrs by SRB assay; conditions: NCI-H226, 48 h
U-251 = assay: Cytotoxicity in human U251 cells after 48 hrs by SRB assay; conditions: U-251, 48 h
RPMI-8226 = assay: Cytotoxicity against human RPMI8226 cells after 48 hrs by SRB assay; conditions: RPMI-8226, 48 h
TK-10 = assay: Cytotoxicity against human TK10 cells after 48 hrs by SRB assay; conditions: TK-10, 48 h
MDA-MB-468 = assay: Cytotoxicity against human MDA-MB-468 cells after 48 hrs by SRB assay; conditions: MDA-MB-468, 48 h
SK-OV-3 = assay: Cytotoxicity against human SKOV3 cells after 48 hrs by SRB assay; conditions: SK-OV-3, 48 h
CAKI-1 = assay: Cytotoxicity against human Caki1 cells after 48 hrs by SRB assay; conditions: CAKI-1, 48 h
SNB-19 = assay: Cytotoxicity against human SNB19 cells after 48 hrs by SRB assay; conditions: SNB-19, 48 h
RXF 393 = assay: Cytotoxicity against human RXF393 cells after 48 hrs by SRB assay; conditions: RXF 393, 48 h
HOP-62 = assay: Cytotoxicity against human HOP62 cells after 48 hrs by SRB assay; conditions: HOP-62, 48 h
OVCAR-4 = assay: Cytotoxicity against human OVCAR4 cells after 48 hrs by SRB assay; conditions: OVCAR-4, 48 h
UO-31 = assay: Cytotoxicity against human UO31 cells after 48 hrs by SRB assay; conditions: UO-31, 48 h
[1] = Cytotoxicity against human Hs 578T cells after 48 hrs by SRB assay
UACC-62 = assay: Cytotoxicity against human UACC62 cells after 48 hrs by SRB assay; conditions: UACC-62, 48 h
HCT-116 = assay: Cytotoxicity against human HCT116 cells after 48 hrs by SRB assay; conditions: HCT-116, 48 h
HT-29 = assay: Cytotoxicity against human HT-29 cells after 48 hrs by SRB assay; conditions: HT-29, 48 h
NCI-H522 = assay: Cytotoxicity against human NCI-H522 cells after 48 hrs by SRB assay; conditions: NCI-H522, 48 h
UACC-257 = assay: Cytotoxicity against human UACC257 cells after 48 hrs by SRB assay; conditions: UACC-257, 48 h
A549 = assay: Cytotoxicity against human A549 cells after 48 hrs by SRB assay; conditions: A549, 48 h
T47D = assay: Cytotoxicity against human T47D cells after 48 hrs by SRB assay
DU-145 = assay: Cytotoxicity against human DU145 cells after 48 hrs by SRB assay; conditions: DU-145, 48 h
SF-539 = assay: Cytotoxicity against human SF539 cells after 48 hrs by SRB assay; conditions: SF-539, 48 h
BT-549 = assay: Cytotoxicity against human BT549 cells after 48 hrs by SRB assay; conditions: BT-549, 48 h
SF-295 = assay: Cytotoxicity against human SF295 cells after 48 hrs by SRB assay; conditions: SF-295, 48 h
ACHN = assay: Cytotoxicity against human ACHN cells after 48 hrs by SRB assay
NCI-H23 = assay: Cytotoxicity against human NCI-H23 cells after 48 hrs by SRB assay; conditions: NCI-H23, 48 h
OVCAR-5 = assay: Cytotoxicity against human OVCAR5 cells after 48 hrs by SRB assay; conditions: OVCAR-5, 48 h
COLO 205 = assay: Cytotoxicity against human COLO205 cells after 48 hrs by SRB assay; conditions: COLO 205, 48 h
NCI-H322M = assay: Cytotoxicity against human NCI-H322M cells after 48 hrs by SRB assay
MDA-MB-231 = assay: Cytotoxicity against human MDA-MB-231 cells after 48 hrs by SRB assay; conditions: MDA-MB-231, 48 h
SK-MEL-2 = assay: Cytotoxicity against human SK-MEL-2 cells after 48 hrs by SRB assay; conditions: SK-MEL-2, 48 h
[2] = read-out: LC50 (the source's name)

Cn1c2ccccc2c2c3nc(N)[nH]c(=O)c3c3c4ccccc4n(C)c3c21
GI50 (IGROV-1): 31.3 µM
TGI (IGROV-1): > 100 µM
CC50 (IGROV-1; [2]): > 100 µM
GI50 (HCC 2998): 6.08 µM
TGI (HCC 2998): > 100 µM
CC50 (HCC 2998; [2]): > 100 µM
GI50 (NCI-H226): 30.6 µM
TGI (NCI-H226): > 100 µM
CC50 (NCI-H226; [2]): > 100 µM
GI50 (U-251): 6.38 µM
TGI (U-251): > 100 µM
CC50 (U-251; [2]): > 100 µM
GI50 (RPMI-8226): 11.1 µM
TGI (RPMI-8226): 65.6 µM
CC50 (RPMI-8226; [2]): > 100 µM
GI50 (TK-10): 7.14 µM
TGI (TK-10): > 100 µM
CC50 (TK-10; [2]): > 100 µM
GI50 (MDA-MB-468): 21.7 µM
TGI (MDA-MB-468): 75.1 µM
CC50 (MDA-MB-468; [2]): > 100 µM
GI50 (SK-OV-3): 3.56 µM
TGI (SK-OV-3): > 100 µM
CC50 (SK-OV-3; [2]): > 100 µM
GI50 (CAKI-1): 1.33 µM
TGI (CAKI-1): > 100 µM
CC50 (CAKI-1; [2]): > 100 µM
GI50 (SNB-19): > 100 µM
TGI (SNB-19): > 100 µM
CC50 (SNB-19; [2]): > 100 µM
GI50 (RXF 393): 7.47 µM
TGI (RXF 393): 37.6 µM
CC50 (RXF 393; [2]): > 100 µM
GI50 (HOP-62): 41 µM
TGI (HOP-62): > 100 µM
CC50 (HOP-62; [2]): > 100 µM
GI50 (OVCAR-4): 16.8 µM
TGI (OVCAR-4): > 100 µM
CC50 (OVCAR-4; [2]): > 100 µM
GI50 (UO-31): 1.37 µM
TGI (UO-31): > 100 µM
CC50 (UO-31; [2]): > 100 µM
GI50 [1]: 10.2 µM
TGI [1]: > 100 µM
CC50 [1, 2]: > 100 µM
GI50 (UACC-62): 16.1 µM
TGI (UACC-62): > 100 µM
CC50 (UACC-62; [2]): > 100 µM
GI50 (HCT-116): 3.2 µM
TGI (HCT-116): 35.3 µM
CC50 (HCT-116; [2]): > 100 µM
GI50 (HT-29): 3.98 µM
TGI (HT-29): 66.1 µM
CC50 (HT-29; [2]): > 100 µM
GI50 (NCI-H522): 14.5 µM
TGI (NCI-H522): > 100 µM
CC50 (NCI-H522; [2]): > 100 µM
GI50 (UACC-257): 12.8 µM
TGI (UACC-257): 32 µM
CC50 (UACC-257; [2]): 79.7 µM
GI50 (A549): 5.8 µM
TGI (A549): > 100 µM
CC50 (A549; [2]): > 100 µM
GI50 (T47D): 5.1 µM
TGI (T47D): > 100 µM
CC50 (T47D; [2]): > 100 µM
GI50 (DU-145): 8.2 µM
TGI (DU-145): > 100 µM
CC50 (DU-145; [2]): > 100 µM
GI50 (SF-539): 18.4 µM
TGI (SF-539): 56.6 µM
CC50 (SF-539; [2]): > 100 µM
GI50 (BT-549): 16.3 µM
TGI (BT-549): > 100 µM
CC50 (BT-549; [2]): > 100 µM
GI50 (SF-295): 3.68 µM
TGI (SF-295): 12.9 µM
CC50 (SF-295; [2]): 76.7 µM
GI50 (ACHN): 1.11 µM
TGI (ACHN): > 100 µM
CC50 (ACHN; [2]): > 100 µM
GI50 (NCI-H23): 3.51 µM
TGI (NCI-H23): > 100 µM
CC50 (NCI-H23; [2]): > 100 µM
GI50 (OVCAR-5): 52.3 µM
TGI (OVCAR-5): > 100 µM
CC50 (OVCAR-5; [2]): > 100 µM
GI50 (COLO 205): 7.99 µM
TGI (COLO 205): 39.4 µM
CC50 (COLO 205; [2]): > 100 µM
GI50 (NCI-H322M): 5.3 µM
TGI (NCI-H322M): > 100 µM
CC50 (NCI-H322M; [2]): > 100 µM
GI50 (MDA-MB-231): 93 µM
TGI (MDA-MB-231): > 100 µM
CC50 (MDA-MB-231; [2]): > 100 µM
GI50 (SK-MEL-2): 1.9 µM
TGI (SK-MEL-2): 7.59 µM
CC50 (SK-MEL-2; [2]): 76.5 µM
